The values that follow come from paper PMC8141582, “Synergistic Effect of Statins and Abiraterone Acetate on the Growth Inhibition of Neuroblastoma via Targeting Androgen Receptor” (Frontiers in Oncology, 2021).

Assay [1] relates to CAPAN-2 cells. Also noted: method as in Supplement [8]; key: Positive: Simvastatin alone inhibited the progression of cancer; Negative: Simvastatin alone could not inhibit the progression of cancer. Particulars: Pancreatic Cancer, 0.5 mg/kg/day, oral; ref Supplement [8]; cited from earlier work.
In assay [2] the test system is PC-3 cells. Also noted: key to Results (simvastatin alone): Positive: Simvastatin alone inhibited the progression of cancer; Negative: Simvastatin alone could not inhibit the progression of cancer. The conditions noted are these: Prostate Cancer, i.p., cited from earlier work.
Assay [3] has as its system SK-N-BE (2) cells. Description: MTT cell viability assay, SK-N-BE (2). Format: cell-based. Particulars: Homo sapiens, SKNBE2, NB cell line, 72 h. The procedure:
(§1) N2a, SH-SY5Y, SK-N-BE (2), 10A, HUVEC, HL7702 cells were plated in 96-well plates at 8,000 cells/well, respectively, in complete media in triplicate wells for each dose and cultured for 18 h. The neuroblastoma cell lines, N2a, SH-SY5Y, and SK-N-BE (2), and non-cancer cell lines, 10A, HUVEC, and HL7702, were treated with simvastatin and fluvastatin in a range of doses from 0 to 20 μM and with AA from 0 to 30 μM; N2a, SH-SY5Y SK-N-BE (2), were treated with rosuvastatin in a range of doses from 0 to 100 μM for 72 h. Statins dissolved in DMSO and AA dissolved in ethanol. After 72 h treatment, the medium was added 0.5 mg/ml MTT reagent and incubated at 37°C for 4 h. Subsequently, the supernatant was aspirated, and cells were lysed in 150 µl DMSO, then shaken 10 min at 37°C. The optical density (OD) was measured at 570 and 630 nm using a plate reader.

Assay [4] deals with N2a cells. In words: Wound healing assay, N2a. Format: cell-based, mouse. Particulars: 1.5 μM simvastatin, 48 h. The procedure: N2a, SH-SY5Y, and SK-N-BE (2) cells were cultured in six-well plates (5 × 10^5cells/well) and incubated till they reached 90–100% confluence. The cells were then maintained in phenol red-free DMEM/DMEM-F12 with 2.5%FBS, in order to minimize the cell proliferation. A sterile 20 µl tip was used to create scratch wounds of the same width. The plates were then washed twice with phosphate-buffered saline (PBS) to remove the detached cells. Photos were taken at 0, 24, and 48 h, and the area covered by the cells enumerated the closure of the wounds. Each experiment was performed in triplicate.

The test system of assay [5] is K562 cells. Also noted: key: Positive: Simvastatin alone inhibited the progression of cancer; Negative: Simvastatin alone could not inhibit the progression of cancer. Particulars: Chronic Myelogenous Leukemia, i.p., cited from earlier work.
Assay [6] deals with specimens of T-ALL patients. Also noted: method as in Supplement [25]; key: Positive: Simvastatin alone inhibited the progression of cancer; Negative: Simvastatin alone could not inhibit the progression of cancer. The conditions noted are these: Pediatric Acute Lymphoblastic Leukemia, 20.0 mg/kg/day, oral; ref Supplement [25]; cited from earlier work.
The test system of assay [7] is HUVEC cells. Description: MTT cell viability assay, HUVEC. The assay is classed as cell-based. The conditions noted are these: Homo sapiens, normal cell line, 72 h. The procedure:
(§2) Statins dissolved in DMSO and AA dissolved in ethanol. After 72 h treatment, the medium was added 0.5 mg/ml MTT reagent and incubated at 37°C for 4 h. Subsequently, the supernatant was aspirated, and cells were lysed in 150 µl DMSO, then shaken 10 min at 37°C. The optical density (OD) was measured at 570 and 630 nm using a plate reader.
In general terms: Formazan colour is commonly taken as a measure of viable cells.

For assay [8], the system named is MDA-MB-231 cells. Further details: key: Positive: Simvastatin alone inhibited the progression of cancer; Negative: Simvastatin alone could not inhibit the progression of cancer. Particulars: Breast Cancer, cited from earlier work.
Assay [9] relates to HepG2 cells. Also noted: method as in Supplement [7]; key: Positive: Simvastatin alone inhibited the progression of cancer; Negative: Simvastatin alone could not inhibit the progression of cancer. Particulars: Hepatocellular Carcinoma, 40.0 mg/kg/day, i.p.; ref Supplement [7]; cited from earlier work.
Assay [10] has as its system GL-26 cells. Also noted: method as in Supplement [2]; key: Positive: Simvastatin alone inhibited the progression of cancer; Negative: Simvastatin alone could not inhibit the progression of cancer. The conditions noted are these: Human glioblastoma multiforme, 1.0 mg/kg/day or 10.0 mg/kg/day, oral; ref Supplement [2]; cited from earlier work.
The test system of assay [11] is LAPC-4 cells. Further details: method as in Supplement [16]; key: Positive: Simvastatin alone inhibited the progression of cancer; Negative: Simvastatin alone could not inhibit the progression of cancer. The conditions noted are these: Prostate Cancer, 11.0 mg/kg/day, s.c.; ref Supplement [16]; cited from earlier work.
Assay [12] concerns SH-SY5Y cells. In words: MTT cell viability assay, SH-SY5Y. The assay is classed as cell-based. The conditions noted are these: Homo sapiens, NB cell line, 72 h. The procedure:
as §1

Assay [13] has as its system 10A cells. Description: MTT cell viability assay, 10A. Format: cell-based. Particulars: Homo sapiens, normal cell line, 72 h. The procedure:
as §2

For assay [14], the system named is TSC2-null cells from the primary tumors. Also noted: method as in Supplement [3]; key: Positive: Simvastatin alone inhibited the progression of cancer; Negative: Simvastatin alone could not inhibit the progression of cancer. The conditions noted are these: Pulmonary Lymphangioleiomyomatosis, 100.0 mg/kg/day, oral; ref Supplement [3]; cited from earlier work.
Assay [15] relates to HCT116 or HT29 cells. Also noted: method as in Supplement [11]; key: Positive: Simvastatin alone inhibited the progression of cancer; Negative: Simvastatin alone could not inhibit the progression of cancer. Particulars: Colorectal Cancer, 50.0 mg/kg/day, oral; ref Supplement [11]; cited from earlier work.
Assay [16] deals with SW 480 cells. Also noted: method as in Supplement [10]; key: Positive: Simvastatin alone inhibited the progression of cancer; Negative: Simvastatin alone could not inhibit the progression of cancer. Particulars: Colorectal Cancer, 6.0 mg/kg/day, oral; ref Supplement [10]; cited from earlier work.
In assay [17] the test system is Caki-1-staR cells. Further details: method as in Supplement [13]; key: Positive: Simvastatin alone inhibited the progression of cancer; Negative: Simvastatin alone could not inhibit the progression of cancer. Particulars: Renal Cancer, 6.7 mg/kg/day, i.p.; ref Supplement [13]; cited from earlier work.

Where two headings read alike, the source gives them in different places.

By IC50 is commonly meant the concentration at which inhibition is half-maximal. With `CCC(C)(C)C(=O)O[C@H]1C[C@@H](C)C=C2C=C[C@H](C)[C@H](CC[C@@H]3C[C@@H](O)CC(=O)O3)[C@H]21` [Simvastatin], the “Results (simvastatin alone)” value in assay [1] is “Positive”; in assay [2] (2.0 mg/kg/day or 4.0 mg/kg/day, ref Supplement [18]), “Positive”; in [2] (2.1 mg/kg/day or 21.0 mg/kg/day, ref Supplement [19]), “Positive”; in assay [2] (4.0 mg/kg/day, ref Supplement [17]), “Positive”; in [5] (1.3 mg/kg/day or 2.0 mg/kg/day, ref Supplement [26]) it was “Positive”; in assay [5] (7.1 mg/kg/day or 14.3 mg/kg/day, ref Supplement [27]), “Positive”. Further, the “Results (simvastatin alone)” value in [6] was “Negative”; in assay [8] (5.0 mg/kg/day, i.v., ref Supplement [23]) it was “Positive”; in [8] (5.0 mg/kg/day, route unknown, ref Supplement [21]), “Positive”; in assay [8] (10.0 mg/kg/day, oral, ref Supplement [20]), “Positive”; in [8] (200.0 mg/kg/day, oral, ref Supplement [22]), “Positive”; in [9], “Positive”. For the same compound, the “Results (simvastatin alone)” value in [10] is reported as “Negative”; in assay [11] it was “Negative”; in assay [14] it was “Positive”; in [15], “Positive”; in assay [16], “Positive”; in assay [17], “Negative”. The IC50 came out at 10.5 µM in [3], 14.6 µM in [7], 9.69 µM in [12] and 26.7 µM in [13]. Moreover, in assay [4], the “migration vs control group” value is given as “significantly higher”.
